Measurements: ChEMBL document CHEMBL3784916, “Synthesis and anticancer activity of novel fluorinated asiatic acid derivatives” (Eur J Med Chem, 2016)

Tests used:
A-375 = experiment: Cytotoxicity against human A375 cells after 72 hrs by MTT assay; format: functional, cell-based; settings: for IC50: A-375, 72 h
MCF7 = experiment: Cytotoxicity against human MCF7 cells after 72 hrs by MTT assay; format: functional, cell-based; settings: for IC50: MCF7, 72 h
HeLa = experiment: Cytotoxicity against human HeLa cells after 72 hrs by MTT assay; format: functional, cell-based
HT-29 = experiment: Cytotoxicity against human HT-29 cells after 72 hrs by MTT assay; format: functional, cell-based; settings: HT-29, 72 h
Jurkat = experiment: Cytotoxicity against human Jurkat cells after 72 hrs by XTT assay; format: functional, cell-based
MIA PaCa-2 = experiment: (§1) Cytotoxicity against human MIAPaCa2 cells after 72 hrs by MTT assay; format: functional, cell-based
PC-3 = experiment: (§2) Cytotoxicity against human PC3 cells after 72 hrs by MTT assay; format: functional, cell-based
BJ = experiment: Cytotoxicity against human BJ cells after 72 hrs by MTT assay; format: cell-based; settings: for Activity: human, bj; for IC50: Homo sapiens, BJ
[1] = as §1; format: functional, cell-based; settings: MIA PaCa-2, 72 h
[2] = as §2; format: functional, cell-based; settings: PC-3, 72 h

| SMILES | Activity (A-375) | Activity (MCF7) | IC50 (HeLa) [µM] | IC50 (HT-29) [µM] | Activity (Jurkat) | Activity (MIA PaCa-2) | Activity (PC-3) | Activity (BJ) | IC50 (A-375) [µM] | IC50 (MCF7) [µM] | IC50 [1] [µM] | IC50 (BJ) [µM] | IC50 (Jurkat) [µM] | IC50 [2] [µM] |
| --- | --- | --- | --- | --- | --- | --- | --- | --- | --- | --- | --- | --- | --- | --- |
| CC(=O)OC[C@@]1(C)[C@@H]2CC[C@]3(C)[C@H](C[C@@H](F)[C@]45[C@@H]6[C@@H](C)[C@H](C)CC[C@@]6(CC[C@]43C)C(=O)N5C)[C@@]2(C)C[C@@H](OC(C)=O)[C@@H]1OC(C)=O | Dose-dependent effect | Dose-dependent effect | 2.95 | 8.5 | Dose-dependent effect | Dose-dependent effect | Dose-dependent effect | Dose-dependent effect |  |  |  |  |  |  |
| COC(=O)[C@H](C)N1C(=O)[C@]23CC[C@@H](C)[C@H](C)[C@H]2[C@]12[C@H](F)C[C@@H]1[C@@]4(C)C[C@@H](OC(C)=O)[C@H](OC(C)=O)[C@@](C)(COC(C)=O)[C@@H]4CC[C@@]1(C)[C@]2(C)CC3 | Dose-dependent effect | Dose-dependent effect | 3.97 | 6.37 | Dose-dependent effect | Dose-dependent effect | Dose-dependent effect | Dose-dependent effect |  |  |  |  |  |  |
| Cc1nccn1C(=O)OC[C@]1(C)C=C(C=O)[C@@]2(C)[C@H]1CC[C@]1(C)[C@@H]2C[C@@H](F)[C@]23OC(=O)[C@@]4(CC[C@@H](C)[C@H](C)[C@H]42)CC[C@]31C | Dose-dependent effect | Dose-dependent effect | 1.63 | 2.8 | Dose-dependent effect | Dose-dependent effect | Dose-dependent effect | Dose-dependent effect |  |  |  |  |  |  |
| CCCC(=O)OC[C@@]1(C)[C@@H]2CC[C@]3(C)[C@H](C[C@@H](F)[C@]45OC(=O)[C@@]6(CC[C@@H](C)[C@H](C)[C@H]64)CC[C@]53C)[C@@]2(C)C[C@@H](OC(=O)CCC)[C@@H]1OC(=O)CCC | Dose-dependent effect | Dose-dependent effect | 5.05 | 7.4 | Dose-dependent effect | Dose-dependent effect | Dose-dependent effect | Dose-dependent effect |  |  |  |  |  |  |
| CCCC(=O)OC[C@]1(C)C=C(C=O)[C@@]2(C)[C@H]1CC[C@]1(C)[C@@H]2C[C@@H](F)[C@]23OC(=O)[C@@]4(CC[C@@H](C)[C@H](C)[C@H]42)CC[C@]31C | Dose-dependent effect | Dose-dependent effect | 0.95 | 1.29 | Dose-dependent effect | Dose-dependent effect | Dose-dependent effect |  | 1.02 | 1.4 | 1.47 |  |  |  |
| C[C@H]1[C@H](C)CC[C@@]23CC[C@]4(C)[C@](OC2=O)([C@H](F)C[C@@H]2[C@@]5(C)C(C=O)=C[C@@](C)(COC(=O)c6ccccc6)[C@@H]5CC[C@]24C)[C@H]13 | Dose-dependent effect | Dose-dependent effect | 0.8 | 1.05 | Dose-dependent effect | Dose-dependent effect | Dose-dependent effect |  | 0.96 | 0.88 | 1.33 | 2.24 |  |  |
| CC(=O)OC[C@]1(C)C=C(C=O)[C@@]2(C)[C@H]1CC[C@]1(C)[C@@H]2C[C@@H](F)[C@]23OC(=O)[C@@]4(CC[C@@H](C)[C@H](C)[C@H]42)CC[C@]31C | Dose-dependent effect | Dose-dependent effect | 1.4 | 2.02 | Dose-dependent effect | Dose-dependent effect | Dose-dependent effect | Dose-dependent effect |  |  |  |  |  |  |
| C[C@H]1[C@H](C)CC[C@@]23CC[C@]4(C)[C@](OC2=O)([C@H](F)C[C@@H]2[C@@]5(C)C(C=O)=C[C@@](C)(COC(=O)n6ccnc6)[C@@H]5CC[C@]24C)[C@H]13 | Dose-dependent effect | Dose-dependent effect | 1.62 | 2.37 | Dose-dependent effect | Dose-dependent effect | Dose-dependent effect | Dose-dependent effect |  |  |  |  |  |  |
| C[C@H]1[C@H](C)CC[C@@]23CC[C@]4(C)[C@](OC2=O)([C@H](F)C[C@@H]2[C@@]5(C)C(C=O)=C[C@@](C)(COC(=O)CCC(=O)O)[C@@H]5CC[C@]24C)[C@H]13 | Dose-dependent effect | Dose-dependent effect | 3.48 | 6.35 | Dose-dependent effect | Dose-dependent effect | Dose-dependent effect | Dose-dependent effect |  |  |  |  |  |  |
| C[C@H]1[C@H](C)CC[C@]2(C(=O)O)CC[C@]3(C)C(=CC[C@@H]4[C@@]5(C)C[C@@H](O)[C@H](O)[C@@](C)(CO)[C@@H]5CC[C@]43C)[C@H]12 [ASIATIC ACID] | Dose-dependent effect | Dose-dependent effect | 52.5 | 64.3 | Dose-dependent effect | Dose-dependent effect | Dose-dependent effect |  | 50.3 | 68.5 | 50.7 | 88.7 | 37.2 | 67.2 |
| COC(=O)CN1C(=O)[C@]23CC[C@@H](C)[C@H](C)[C@H]2[C@]12[C@H](F)C[C@@H]1[C@@]4(C)C[C@@H](OC(C)=O)[C@H](OC(C)=O)[C@@](C)(COC(C)=O)[C@@H]4CC[C@@]1(C)[C@]2(C)CC3 | Dose-dependent effect | Dose-dependent effect | 2.72 | 9.23 | Dose-dependent effect | Dose-dependent effect | Dose-dependent effect | Dose-dependent effect |  |  |  |  |  |  |
| C[C@H]1[C@H](C)CC[C@@]23CC[C@]4(C)[C@](OC2=O)([C@H](F)C[C@@H]2[C@@]5(C)C(C=O)=C[C@@](C)(CO)[C@@H]5CC[C@]24C)[C@H]13 | Dose-dependent effect | Dose-dependent effect | 1.08 | 1.28 | Dose-dependent effect | Dose-dependent effect | Dose-dependent effect | Dose-dependent effect |  |  |  |  |  |  |
| C[C@H]1[C@H](C)CC[C@@]23CC[C@]4(C)[C@](OC2=O)([C@H](F)C[C@@H]2[C@@]5(C)CC(=O)[C@H](O)[C@@](C)(CO)[C@@H]5CC[C@]24C)[C@H]13 | Dose-dependent effect | Dose-dependent effect | 24.5 | 23.5 | Dose-dependent effect | Dose-dependent effect | Dose-dependent effect | Dose-dependent effect |  |  |  |  |  |  |
| C[C@H]1[C@H](C)CC[C@@]23CC[C@]4(C)[C@](OC2=O)([C@H](F)C[C@@H]2[C@@]5(C)C[C@@H](O)[C@H](O)[C@@](C)(CO)[C@@H]5CC[C@]24C)[C@H]13 | Dose-dependent effect | Dose-dependent effect | 60.2 | 51.2 | Dose-dependent effect | Dose-dependent effect | Dose-dependent effect | Dose-dependent effect |  |  |  |  |  |  |
| C[C@H]1[C@H](C)CC[C@@]23CC[C@]4(C)[C@](OC2=O)([C@H](F)C[C@@H]2[C@@]5(C)C[C@@H](O)OC[C@](C)(C=O)[C@@H]5CC[C@]24C)[C@H]13 | Dose-dependent effect | Dose-dependent effect | 7.4 | 11.2 | Dose-dependent effect | Dose-dependent effect | Dose-dependent effect | Dose-dependent effect |  |  |  |  |  |  |
| CC(=O)OC[C@@]1(C)[C@@H]2CC[C@]3(C)[C@H](C[C@@H](F)[C@]45NC(=O)[C@@]6(CC[C@@H](C)[C@H](C)[C@H]64)CC[C@]53C)[C@@]2(C)C[C@@H](OC(C)=O)[C@@H]1OC(C)=O | Dose-dependent effect | Dose-dependent effect | 2.37 | 7.5 | Dose-dependent effect | Dose-dependent effect | Dose-dependent effect | Dose-dependent effect |  |  |  |  |  |  |
| CC(=O)OC[C@@]1(C)[C@@H]2CC[C@]3(C)[C@H](C[C@@H](F)[C@]45OC(=O)[C@@]6(CC[C@@H](C)[C@H](C)[C@H]64)CC[C@]53C)[C@@]2(C)C[C@@H](OC(C)=O)[C@@H]1OC(C)=O | Dose-dependent effect | Dose-dependent effect | 4.43 | 6.38 | Dose-dependent effect | Dose-dependent effect | Dose-dependent effect | Dose-dependent effect |  |  |  |  |  |  |
